Source: patent publication US20240424005A1, “DIAGNOSING, MONITORING AND TREATING NEUROLOGICAL DISEASE WITH PS[…] DERIVATIVES AND mRNA MEASUREMENTS” (NOVA MENTIS LIFE SCIENCE CORP., priority 2021, published 2024)
Entries after “also recorded” stand apart in the source; their conditions may differ.

Tests used:
[1] = tested on: red blood cells; test: Toxicity and oxidative stress in red blood cells
[2] = 0.1 mg/kg, rats; Higgins et al., 2021; cited from earlier work
[3] = tested on: wild-type (WT) animals; test: Novel object recognition task in wild-type control rats; type: in vivo, rat
Procedure: The experiments were performed in Fmr1-^Δexon 8 rats on a Sprague-Dawley background (Horizon Discovery, formerly SAGE Labs, USA), proposed as a genetic model of ASD and rat model of FXS (Golden et al., 2019; Schiavi et al., 2022); the corresponding wild-type (WT) animals were used as controls.
(§1) We performed three experiments testing Fmr1-^Δexon 8 rats and WT controls in the novel object recognition task using three different treatment schedules for psilocybin administration: • 1. Experiment 1: a single dose of either 1 (Hibicke et al., 2020) or 3 mg/kg psilocybin given intraperitoneally (i.p.) eight days before behavioral testing (FIG. 8A); • 2. Experiment 2: repeated microdoses of psilocybin (0.1 mg/kg) given i.p. three times every other day, with behavioral testing starting five days after the last administration (FIG. 8B); • 3. Experiment 3: repeated microdoses of psilocybin (0.1 or 0.3 mg/kg) (Higgins et al., 2021) given orally (p.o.) three times every other day, for two consecutive weeks, with behavioral testing starting five days after the last administration (FIG. 8C).
We have recently shown that Fmr1-^Δexon 8 rats show impaired novel object recognition memory at adolescence (Schiavi et al., 2022). […] On the training trial, each rat was individually placed into an open-field arena containing two identical objects (A1 and A2), equidistant from each other, and allowed to explore the objects for 5 min. Thirty minutes later, one copy of the familiar object (A3) and a new object (B) were placed in the same location as during the training trial. Each rat was placed in the apparatus for 5 minutes, and the time spent exploring each object was recorded. The discrimination index was calculated as the difference in time exploring the novel and the familiar objects, expressed as the percentage ratio of the total time spent exploring both objects (Schiavi et al., 2022).
Data are expressed as mean±SEM and were analyzed by two-way ANOVA, with genotype (WT or Fmr1-^Δexon 8) and treatment (psilocybin or vehicle) as factors. Tukey's post hoc test was used for individual group comparisons. The accepted value for significance was set at p<0.05. Data were analyzed using GraphPad Prism 8 software.

[4] = tested on: VPA-exposed rats; test: Elevated plus-maze test in rats prenatally exposed to valproic acid; type: in vivo, rat; details: offspring of VPA-treated pregnant rats
Procedure: Female Wistar rats (Charles River), weighing 250±15 g, were mated overnight. The morning when spermatozoa were found was designated as gestational day 1 (GD1). Pregnant rats were singly housed in Macrolon cages (401×26w x 20h cm), under controlled conditions (temperature 20-21° C., 55-65% relative humidity and 12/12h light cycle with lights on at 07:00 a.m.). Food and water were available ad libitum. On gestational day 12.5, females received a single intraperitoneal injection of either sodium valproate (VPA) or saline (SAL). […] Newborn litters found up to 5.00 p.m. were considered to be born on that day (Postnatal day (PND) 0). On PND 1, the litters were culled to eight animals (six males and two females). On PND 21, the pups were weaned and housed in groups of three. […]
The apparatus comprised two open and two closed arms (501×10×40 h cm) that extended from a common central platform (101×10 w cm). […] Each session was recorded with a camera positioned above the apparatus for subsequent behavioral analysis performed using the Observer 3.0 software (Noldus Information Technology). The following parameters were analyzed: […]
Data are expressed as mean±SEM. To assess the effects of prenatal VPA exposure and psilocybin on behavioral parameters, data were analyzed by two-way ANOVA, with prenatal treatment and postnatal treatment as factors. […]

[5] = Observation of discomfort/intoxication after repeated oral microdosing; type: in vivo, rat; details: Experiment 3: 0.1 or 0.3 mg/kg p.o. repeated; immediately and days after administration
Procedure: as §1
To increase the translational value of our findings, we finally decided to assess the effects of repeated oral administration of 0.1 and 0.3 mg/kg psilocybin microdoses, for two weeks every other day, in our Fmr1-^Δexon 8 rats. The animals were tested five days after the last treatment, to prevent any hallucinogenic effect of the drug at the time of behavioral performance.

In the case of CN(C)CCc1c[nH]c2cccc(O)c12 [psilocin], the “toxicity in red blood cells” value [1] is reported as “non-toxic”.
In the case of CN(C)CCc1c[nH]c2cccc(OP(=O)(O)O)c12 [psilocybin], the “side effects on motor activity or stereotypies” value [2] is given as “devoid of side effects on motor activity or stereotypies”, the “cognitive performance of WT animals (% discrimination index)” value ([3]; Experiment 1: single dose 1 mg/kg i.p. eight days before testing, WT rats) is given as “did not affect the performance of WT animals” and the “cognitive performance of WT animals (% discrimination index)” value ([3]; Experiment 1: single dose 3 mg/kg i.p. eight days before testing, WT rats vs WT vehicle, p<0.001, 3 mg/kg) is given as “poorer cognitive performance; also recorded: detrimental effect”. For the same molecule, the “cognitive performance of WT animals” value ([3]; Experiment 2: 0.1 mg/kg i.p. three times every other day, WT rats) was “without affecting the performance of WT animals”, the “cognitive performance of WT animals” value ([3]; Experiment 3: 0.1 or 0.3 mg/kg p.o. repeated for two weeks, WT rats) was “without affecting the performance of WT animals” and the “performance in wild-type (WT) control animals” value ([3]; repeated microdoses (schedule not given at the place)) was “without affecting the performance”. The “safety of treatment in the VPA model” value [4] was “safe”, the “signs of discomfort/intoxication in the animals” value [5] was “did not induce any sign of discomfort/intoxication” and the “toxicity in red blood cells” value [1] was “non-toxic”.
